Assay: Subacute study of intravenously administered CX-3543 in dogs (safety and tolerance)
Assay type: in vivo
Procedure: This study determines the safety and tolerance of CX-3543 at three dose levels administered intravenously once daily to beagle dogs for five consecutive days. Safety parameters were monitored through observation, clinical pathology, and microscopic histopathology assessments. Selected animals also underwent blood sample collection for pharmacokinetic/toxicokinetic evaluation. All animals were also assessed with ECG evaluations to detect heart rhythm and/or conduction abnormalities.
The study was conducted using three (3) test article and one (1) control article group. The control article was the solution (5% dextrose in water) used to dilute the test article prior to administration and was administered at the same volume as the high dose. The test article dosage levels for this study were approximately 12, 3.8, and 1.2 mg/kg. Test and control articles were administered once by intravenous (IV) infusion over approximately a one hour period on five consecutive days. Blood samples for test article blood level analysis was taken as follows (i.e., pk/tk sampling): approximately 1 mL of blood was taken from three male and three female dogs in the low dose group at approximately 20 minutes and 40 minutes from the start of the infusion, and then at the end of infusion (Time 0) and at 5, 10, 15, and 30 minutes, and 1, 2, 4, 8, 12, and 24 hours from the end of the infusion after the first and fifth doses. Also, prior to and immediately after Dose 1 and after Dose 5 for all animals, and for recovery animals prior to necropsy, approximately 5-10 second ECG tracings in a lead II configuration were obtained. Animals were terminated one (1) or 15 days after the last dose. […]
Clinical Pathology: After overnight fasting and prior to the first dose (baseline; all animals) and then prior to each necropsy, blood samples are taken for hematology and clinical chemistry. For hematology assays, blood collected at baseline and prior to necropsy (fasted) are analyzed for erythrocyte count, hematocrit, MCH, leukocyte count, differential WC, MCHC, hemoglobin, MCV, platelet count, PT, and APTT. […]

SMILES: CN1CCCC1CCNC(=O)c1cn2c3c(c(N4CCC(c5cnccn5)C4)c(F)cc3c1=O)Oc1cc3ccccc3cc1-2 (stereo not drawn) [CX-3543]
- mortality (dog, in vivo): no mortality
- tolerance (dogs, five consecutive daily doses at 12, 3.8 or 1.2 mg/kg, IV one-hour infusion, except injection-site inflammation and necrosis): toxicologically well tolerated
- ECG monitoring (dogs, pre and post doses 1 and 5): No abnormalities were detected

— patent US7507727B2, “Substituted quinobenzoxazine analogs and methods of using thereof” (Cylene Pharmaceuticals, Inc., priority 2003, dated 2009)
